What was measured:
Assay type in all cases: cell-based
SKOV-3 = experiment: SRB colorimetric cell growth inhibition assay, SKOV-3; details: Homo sapiens; for GI50: SK-OV-3, SKOV-3, GI=growth inhibition, read-out: GI50 SKOV-3; for CC50 / IC (TGI): SK-OV-3, SKOV-3; for CC50: LC=cell killing (cytotoxic effect), read-out: LC50 SKOV-3; for IC (TGI): TGI=total growth inhibition (cytostatic effect), read-out: TGI SKOV-3
How it was run: (§1)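 SRB colorimetric readout of cell growth/viability in 96-well format. Means ± SD from triplicate wells; GI (growth inhibition), TGI (total growth inhibition, cytostatic) and LC (cell killing, cytotoxic) parameters derived.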

IGROV-ET = experiment: SRB colorimetric cell growth inhibition assay, IGROV-ET (ET-743 resistant); details: Homo sapiens, IGROV-ET; for GI50: GI=growth inhibition, read-out: GI50 IGROV-ET; for CC50: LC=cell killing (cytotoxic effect), read-out: LC50 IGROV-ET; for IC (TGI): TGI=total growth inhibition (cytostatic effect), read-out: TGI IGROV-ET
How it was run: (§2)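 Cells are kept under uninterrupted exposure to compound. Staining with sulforhodamine B then measures cell growth and viability. Triplicate data give mean ± SD, from which growth inhibition, total growth inhibition and lethal concentration values follow.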

DU-145 = experiment: SRB colorimetric cell growth inhibition assay, DU-145; details: Homo sapiens, DU-145, DU-145; for GI50: GI=growth inhibition, read-out: GI50 DU-145; for CC50: LC=cell killing (cytotoxic effect), read-out: LC50 DU-145; for IC (TGI): TGI=total growth inhibition (cytostatic effect), read-out: TGI DU-145
How it was run: as §2

SK-BR-3 = experiment: SRB colorimetric cell growth inhibition assay, SK-BR-3; details: Homo sapiens, SK-BR-3, SK-BR-3; for GI50: GI=growth inhibition, read-out: GI50 SK-BR-3; for CC50: LC=cell killing (cytotoxic effect), read-out: LC50 SK-BR-3; for IC (TGI): TGI=total growth inhibition (cytostatic effect), read-out: TGI SK-BR-3
How it was run: as §2

A-549 = experiment: SRB colorimetric cell growth inhibition assay, A-549; details: Homo sapiens, A549, A-549; for GI50: GI=growth inhibition, read-out: GI50 A-549; for CC50: cell killing (cytotoxic effect), read-out: LC50 A-549; for IC (TGI): total growth inhibition (cytostatic effect), read-out: TGI A-549
How it was run: as §2

H-MEC-1 = experiment: SRB colorimetric cell growth inhibition assay, H-MEC-1; details: Homo sapiens, HMEC-1, H-MEC-1; for GI50: GI=growth inhibition; for IC (TGI): TGI=total growth inhibition (cytostatic effect), read-out: TGI H-MEC-1
How it was run: as §1

[1] = as above; details: human, H-MEC-1 cells, H-MEC-1; LC=cell killing (cytotoxic effect); read-out: LC50 H-MEC-1
How it was run: as §1

LoVo = experiment: SRB colorimetric cell growth inhibition assay, LoVo; details: Homo sapiens, LoVo; for GI50: GI=growth inhibition, read-out: GI50 LOVO; for CC50: cell killing (cytotoxic effect), read-out: LC50 LOVO; for IC (TGI): total growth inhibition (cytostatic effect), read-out: TGI LOVO
How it was run: as §2

HT-29 = experiment: SRB colorimetric cell growth inhibition assay, HT-29; details: Homo sapiens, HT-29, HT-29; for GI50: GI=growth inhibition, read-out: GI50 HT-29; for CC50: cell killing (cytotoxic effect), read-out: LC50 HT-29; for IC (TGI): total growth inhibition (cytostatic effect), read-out: TGI HT-29
How it was run: as §2

K-562 = experiment: SRB colorimetric cell growth inhibition assay, K-562; details: Homo sapiens, K562, K-562; for GI50: GI=growth inhibition, read-out: GI50 K-562; for CC50: cell killing (cytotoxic effect), read-out: LC50 K-562; for IC (TGI): total growth inhibition (cytostatic effect), read-out: TGI K-562
How it was run: as §2

LoVo-Dox = experiment: SRB colorimetric cell growth inhibition assay, LoVo-Dox (MDR); details: Homo sapiens, LOVO-DOX; for GI50: GI=growth inhibition, read-out: GI50 LOVO-DOX; for CC50: cell killing (cytotoxic effect), read-out: LC50 LOVO-DOX; for IC (TGI): total growth inhibition (cytostatic effect), read-out: TGI LOVO-DOX
How it was run: as §2

SK-MEL-28 = experiment: SRB colorimetric cell growth inhibition assay, SK-MEL-28; details: Homo sapiens, SK-MEL-28, MEL-28; for GI50: GI=growth inhibition, read-out: GI50 MEL-28; for CC50: LC=cell killing (cytotoxic effect), read-out: LC50 MEL-28; for IC (TGI): TGI=total growth inhibition (cytostatic effect), read-out: TGI MEL-28
How it was run: as §2

IGROV = experiment: SRB colorimetric cell growth inhibition assay, IGROV; details: Homo sapiens, IGROV; for GI50: GI=growth inhibition, read-out: GI50 IGROV; for CC50: LC=cell killing (cytotoxic effect), read-out: LC50 IGROV; for IC (TGI): TGI=total growth inhibition (cytostatic effect), read-out: TGI IGROV
How it was run: as §2

PANC-1 = experiment: SRB colorimetric cell growth inhibition assay, PANC-1; details: Homo sapiens, PANC-1, PANC-1; for GI50: GI=growth inhibition, read-out: GI50 PANC-1; for CC50: cell killing (cytotoxic effect), read-out: LC50 PANC-1; for IC (TGI): total growth inhibition (cytostatic effect), read-out: TGI PANC-1
How it was run: as §2

Row | Compound | GI50 (SKOV-3) [µM] | CC50 (SKOV-3) [µM] | IC (TGI) (SKOV-3) [µM] | GI50 (IGROV-ET) [µM] | CC50 (IGROV-ET) [µM] | IC (TGI) (IGROV-ET) [µM] | GI50 (DU-145) [µM] | CC50 (DU-145) [µM] | IC (TGI) (DU-145) [µM] | GI50 (SK-BR-3) [µM] | CC50 (SK-BR-3) [µM] | IC (TGI) (SK-BR-3) [µM] | GI50 (A-549) [µM] | CC50 (A-549) [µM] | IC (TGI) (A-549) [µM] | GI50 (H-MEC-1) [µM] | IC (TGI) (H-MEC-1) [µM] | CC50 [1] [µM] | GI50 (LoVo) [µM] | CC50 (LoVo) [µM] | further results
1 | COc1cc(-c2c3n(c4c(=O)oc5cc(OC(=O)[C@H](C)N)c(OC)cc5c24)CCc2c-3cc(OC)c(OC)c2OC(=O)[C@H](C)N)ccc1OC(=O)[C@H](C)N [Compound 96] | 4.2 | 9.2 | 9.2 | 2.69 | 9.2 | 5.6 | 4.26 | 9.2 | 9.2 | 0.417 | 5.47 | 1.86 | 4.97 | 9.2 | 9.2 | 0.381 | 9.2 | 9.2 | 2.28 | 9.2 | IC (TGI) (LoVo): 9.2 µM; GI50 (HT-29): 9.2 µM; CC50 (HT-29): 9.2 µM; IC (TGI) (HT-29): 9.2 µM; GI50 (K-562): 1.63 µM; CC50 (K-562): 9.2 µM; IC (TGI) (K-562): 4.43 µM; GI50 (LoVo-Dox): 0.563 µM; CC50 (LoVo-Dox): 9.2 µM; IC (TGI) (LoVo-Dox): 2.07 µM; GI50 (SK-MEL-28): 2.14 µM; CC50 (SK-MEL-28): 9.18 µM; IC (TGI) (SK-MEL-28): 4.43 µM; GI50 (IGROV): 1.2 µM; CC50 (IGROV): 7.54 µM; IC (TGI) (IGROV): 3.01 µM; GI50 (PANC-1): 1.68 µM; CC50 (PANC-1): 9.2 µM; IC (TGI) (PANC-1): 5.65 µM
2 | COc1cc(-c2c3c4cc(OC)c(OC(=O)[C@H](C)NC(=O)OC(C)(C)C)cc4oc(=O)c3n3ccc4c(OC(=O)[C@H](C)NC(=O)OC(C)(C)C)c(OC)c(OC)cc4c23)ccc1OC(=O)[C@H](C)NC(=O)OC(C)(C)C [Compound 97] | 6.01 | 9.59 | 9.59 | 0.678 | 9.59 | 3.33 | 4.13 | 9.59 | 9.59 | 1.23 | 9.59 | 3.58 | 9.59 | 9.59 | 9.59 | 0.0337 | 0.0959 | 9.59 | 5.28 | 9.59 | IC (TGI) (LoVo): 9.59 µM; GI50 (HT-29): 9.59 µM; CC50 (HT-29): 9.59 µM; IC (TGI) (HT-29): 9.59 µM; GI50 (K-562): 3.2 µM; CC50 (K-562): 9.59 µM; IC (TGI) (K-562): 6.86 µM; GI50 (LoVo-Dox): 5.29 µM; CC50 (LoVo-Dox): 9.59 µM; IC (TGI) (LoVo-Dox): 9.59 µM; GI50 (SK-MEL-28): 0.262 µM; CC50 (SK-MEL-28): 9.59 µM; IC (TGI) (SK-MEL-28): 4.71 µM; GI50 (IGROV): 0.186 µM; CC50 (IGROV): 7.54 µM; IC (TGI) (IGROV): 1.94 µM; GI50 (PANC-1): 4.47 µM; CC50 (PANC-1): 9.59 µM; IC (TGI) (PANC-1): 9.59 µM
